Assay results as given in patent EP0465913B1, “Diaminotrifluoromethylpyrimidine derivatives, process for their production and phospholipase A2 inhibitor containing them” (ISHIHARA SANGYO KAISHA, LTD., priority 1990, dated 1992).
Counter-ions that a name gives are not always drawn.

Experiments:
[1] = target: T1, Porcine pancreatic phospholipase A2 (Sus scrofa, UniProt P00592); test: Phospholipase A2 inhibitory activity, method B (L-α-dipalmitoylphosphatidylcholine substrate); assay type: biochemical; details: 37°C for 30 minutes; for inhibition at 1000 ppm: 1,000 ppm, read-out: % inhibition of PLA2 (1,000 ppm)
T1 construct: purchased Boehringer Mannheim·Yamanouchi K.K. 161454·122416
T1 sequence (P00592 23-146): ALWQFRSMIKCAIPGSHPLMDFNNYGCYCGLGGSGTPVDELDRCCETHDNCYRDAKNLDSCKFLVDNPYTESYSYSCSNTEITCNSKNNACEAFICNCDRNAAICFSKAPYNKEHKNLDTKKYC
Summary of the method: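 Substrate: L-α-dipalmitoylphosphatidylcholine/sodium cholate mixed micelles in 250 mM NaCl, 100 mM Tris-HCl pH 8.0. Enzyme (10 µg/ml stock) incubated with compound in buffer containing CaCl2 and BSA, 30 min at 37 °C. Released free fatty acid measured by ACS-ACOD at 540 nm; % inhibition derived from apparent enzyme concentration read off a standard curve.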

[2] = system: increased vascular permeability induced by acetic acid; test: Inhibitory activity on increased vascular permeability induced by acetic acid (Mouse Whittle method, method C); assay type: in vivo, ddy male mice; details: amount of leaked dye
Summary of the method: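 ddy male mice (4-5 per group) dosed orally with compound in 2% Tween 80 suspension or aqueous salt solution. Dye measured at 600 nm; inhibition % calculated versus vehicle control leakage.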

[3] = system: carrageenin edema; test: Inhibitory activity on carrageenin edema; assay type: in vivo, Wistar male rats; details: rat, paw swelling volume three hours after carrageenin; for inhibition in vivo at 100 mg/kg: po, 3 h, dose 100 mg/kg orally, read-out: Inhibition rate (%); for Inhibition rate (%): dose 50 mg/kg orally
Summary of the method: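 Male Wistar rats (about 100 g, 5 per group) dosed orally at 200, 100, 50 or 25 mg/kg as 2% Tween 80 suspension or aqueous salt solution, 1 h before subplantar injection of 0.1 ml 1% λ-carrageenin. Paw swelling measured at 3 h; % inhibition versus control group mean swelling.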

Structure (SMILES)	inhibition at 1000 ppm [1]	Inhibition rate (%) ([2]; dose 10 mg/kg orally)	Inhibition rate (%) ([2]; dose 20 mg/kg orally)	Inhibition rate (%) [3]	also measured
CS(=O)(=O)Nc1ncc(C(F)(F)F)cc1NC(=O)c1ccc(F)cc1 [Compound No. 10, N-(2-methylsulfonylamino-5-trifluoromethyl-3-pyridyl)-4-fluorobenzamide]	51%	42%	–	–	inhibition in vivo at 100 mg/kg [3]: 28%
CCS(=O)(=O)Nc1ncc(C(F)(F)F)cc1NC(=O)C1CCCCC1 [Compound No. 47, N-(2-ethylsulfonylamino-5-trifluoromethyl-3-pyridyl)cyclohexanecarboxamide]	90%	46%	–	–	Inhibition rate (%) ([3]; 50 mg/kg): 41%
CCS(=O)(=O)Nc1ncc(C(F)(F)F)cc1NC(=O)C1CCCCC1 [Compound No. 251, sodium salt of N-(2-ethylsulfonylamino-5-trifluoromethyl-3-pyridyl)cyclohexanecarboxamide]	–	–	–	–	% inhibition of PLA2 (1,000 ppm) [1]: 85%; Inhibition rate (%) ([2]; dose 20 mg/kg orally, 20 mg/kg): 43%; Inhibition rate (%) ([3]; 50 mg/kg): 30%
CS(=O)(=O)Nc1ncc(C(F)(F)F)cc1NC(=O)C(F)(F)C(F)(F)F [compound 13]	51%	–	–	–	Inhibition rate (%) ([2]; dose 100 mg/kg orally): 57%; inhibition in vivo at 100 mg/kg [3]: 21%
CS(=O)(=O)Nc1ncc(C(F)(F)F)cc1NC(=O)c1ccccc1 [compound 43]	49%	–	48%	31%	–
CS(=O)(=O)Nc1ncc(C(F)(F)F)cc1NC(=O)C1CCCC1 [compound 45]	41%	–	29%	23%	–
Cc1cccc(C(=O)Nc2cc(C(F)(F)F)cnc2NS(C)(=O)=O)c1 [compound 78]	51%	32%	–	26%	–
CS(=O)(=O)Nc1ncc(C(F)(F)F)cc1NC(=O)c1cccc(Cl)c1 [compound 79]	65%	–	67%	20%	–
CS(=O)(=O)Nc1ncc(C(F)(F)F)cc1NC(=O)c1cc2ccccc2s1 [compound 86]	93%	–	42%	27%	–
CS(=O)(=O)Nc1ncc(C(F)(F)F)cc1NC(=O)c1ccc2c(c1)CCC2 [compound 87]	88%	28%	–	21%	–
C/C=C/C(=O)Nc1cc(C(F)(F)F)cnc1NS(=O)(=O)CC [compound 93, N-(2-ethylsulfonylamino-5-trifluoromethyl-3-pyridyl)crotonamide]	48%	40%	–	22%	–
CCS(=O)(=O)Nc1ncc(C(F)(F)F)cc1NC(=O)C1CCCC1 [compound 94]	63%	–	53%	23%	–
